In US20150175599A1, “FAAH Inhibitors” (Ironwood Pharmaceuticals, Inc., priority 2010, published 2015):

Target: T1, hERG channel (Homo sapiens, UniProt Q12809)
T1 construct: expressed in transfected cells; host or cells: CHO (hERG-CHO), under Geneticin selection
Experiment: hERG channel inhibition, automated patch clamp (IonWorks HT, hERG-CHO)
Type: cell-based
Conditions: CHO cells expressing hERG, 600 s incubation; for inhibition at 600 s, 1 µM: 1 μM compound, read-out: hERG Channel Inhibition % (at 1 μM), vehicle-subtracted values; for inhibition at 600 s, 10 µM: 10 μM compound, read-out: hERG Channel Inhibition % (at 10 μM), vehicle-subtracted values
Protocol: Human ether-a-gogo-related (hERG) ion channel encodes the inward rectifying voltage gated potassium channel in the heart and has a major role during the repolarization of the cardiac action potential. It is well established that blockade of this ion channel can lead to potentially lethal arrhythmias. hERG pre-clinical safety data is often used by regulatory agencies in elucidate the toxicity profile of certain compositions. The disclosed compounds of Table 1 were tested for their ability to inhibit hERG ion channels.
Media components include F12 Nutrient Mixture (Ham) with GlutaMAX™ (Invitrogen, Cat#31765), Fetal Bovine Serum, Certified (Invitrogen, Cat#16000-044—not heat activated), and Geneticin® Selective Antibiotic (Invitrogen, Cat#10131-027).
One vial of frozen cells, at 1.62×10^6 cells are thawed into a T150 flask (BD Falcon 355001) with 40 mL of pre-warmed complete media. Cells are cultured at 37° C., 5% CO2 for four hours prior to gently changing media. 99% of cells appear attached at this time point.
The flask is media changed at 24 hours post-thaw, the cells are imaged, media changed, and returned to the incubator. At this point, the cells appear healthy and about 25% confluent in the flask. Cells are typically passed 24-48 hours after thaw according to the following intervals and densities below. Cells are incubated at 30° C. for 48 hours prior to assay.
Using an automated patch clamp apparatus (IonWorks^HT), a three pulse protocol was applied by stepping from a holding potential of −80 mV to […] for 2 s, to activate hERG channels. The membrane voltage was then stepped back to −50 mV for 2 s to evoke a tail current prior to returning to the holding potential for 1 s. This sequence was repeated a further two times. This voltage protocol was applied prior to drug (Pre compound) and after 600 s in the presence of drug (Post compound).
The amplitude of the hERG tail current was calculated by measuring the difference between the maximum current on stepping to −50 mV of the third pulse (i.e. peak of the outward hERG tail current) and the current measured immediately prior to activation of any hERG current. This parameter was assessed before (pre tail current amplitude) and after 600 s incubation (post tail current amplitude) in drug. In order to assess the amount of block produced by test compounds, the data was first filtered using the IonWorks™ software to exclude any cells where the seal resistance was less than 50 MOhm. The remaining data was then exported to an excel compatible data file and only currents with tail currents greater than 250 pA were analyzed. The post/pre tail current amplitude ratio for the third pulse was calculated for each drug and control, and presented as percent inhibition.

T1 sequence (Q12809 whole entry): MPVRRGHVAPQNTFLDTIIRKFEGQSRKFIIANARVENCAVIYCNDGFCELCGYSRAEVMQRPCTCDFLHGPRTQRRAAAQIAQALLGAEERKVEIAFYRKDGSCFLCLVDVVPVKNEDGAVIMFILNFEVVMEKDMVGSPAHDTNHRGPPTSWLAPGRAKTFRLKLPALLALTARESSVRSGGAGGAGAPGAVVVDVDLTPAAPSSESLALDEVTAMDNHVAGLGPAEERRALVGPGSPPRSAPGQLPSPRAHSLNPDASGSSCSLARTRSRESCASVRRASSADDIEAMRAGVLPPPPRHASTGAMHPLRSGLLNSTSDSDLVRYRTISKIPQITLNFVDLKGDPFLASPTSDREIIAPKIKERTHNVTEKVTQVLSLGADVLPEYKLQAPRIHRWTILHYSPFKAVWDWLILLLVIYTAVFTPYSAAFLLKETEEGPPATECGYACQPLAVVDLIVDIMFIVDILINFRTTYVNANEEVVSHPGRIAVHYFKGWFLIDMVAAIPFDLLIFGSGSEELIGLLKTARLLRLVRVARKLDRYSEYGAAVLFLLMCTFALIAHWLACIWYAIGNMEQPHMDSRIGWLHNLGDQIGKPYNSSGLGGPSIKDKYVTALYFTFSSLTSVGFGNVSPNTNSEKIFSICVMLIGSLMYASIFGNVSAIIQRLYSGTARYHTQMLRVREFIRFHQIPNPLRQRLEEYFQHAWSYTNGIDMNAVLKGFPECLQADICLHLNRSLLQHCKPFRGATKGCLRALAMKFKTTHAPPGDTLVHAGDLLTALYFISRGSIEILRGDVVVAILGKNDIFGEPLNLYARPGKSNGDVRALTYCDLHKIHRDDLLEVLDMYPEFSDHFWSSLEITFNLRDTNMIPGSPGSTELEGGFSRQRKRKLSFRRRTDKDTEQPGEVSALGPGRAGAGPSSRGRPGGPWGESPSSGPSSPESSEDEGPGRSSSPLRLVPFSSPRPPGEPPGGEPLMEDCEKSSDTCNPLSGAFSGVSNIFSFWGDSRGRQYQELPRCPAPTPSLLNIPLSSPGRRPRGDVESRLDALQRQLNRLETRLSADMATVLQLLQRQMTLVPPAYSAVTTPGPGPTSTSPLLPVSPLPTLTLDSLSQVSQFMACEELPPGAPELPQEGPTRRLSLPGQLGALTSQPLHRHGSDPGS

| Structure (SMILES) | inhibition at 600 s, 1 µM [%] | inhibition at 600 s, 10 µM [%] |
| --- | --- | --- |
| COc1cc(NC(=O)C(=O)c2c(C)n(Cc3ncc(Cl)cc3Cl)c3ccccc23)ccn1 [Compound 31, 2-(1-((3,5-dichloropyridin-2-yl)methyl)-2-methyl-1H-indol-3-yl)-N-(2-methoxypyridin-4-yl)-2-oxoacetamide] | < 25 | < 25 |
| COc1cc(NC(=O)C(=O)c2c(C)n(Cc3ccc(Cl)cc3)c3cc(OC)c(OC)cc23)ccn1 [Compound 44, 2-(1-(4-chlorobenzyl)-5,6-dimethoxy-2-methyl-1H-indol-3-yl)-N-(2-methoxypyridin-4-yl)-2-oxoacetamide] | < 25 | < 25 |
| COc1cc(NC(=O)C(=O)c2c(C)n(Cc3ccc(Cl)cc3)c3ccc(N(C)C(=O)OC(C)(C)C)cc23)ccn1 [Compound 7, Tert-butyl(1-(4-chlorobenzyl)-3-(2-((2-methoxypyridin-4-yl)amino)-2-oxoacetyl)-2-methyl-1H-indol-5-yl)(methyl)carbamate] | < 25 | < 25 |
| COc1cc(NC(=O)C(=O)c2c(C)n(Cc3ncc(Cl)cc3Cl)c3ccc(C)cc23)ccn1 [Compound 30, 2-(1-((3,5-dichloropyridin-2-yl)methyl)-2,5-dimethyl-1H-indol-3-yl)-N-(2-methoxypyridin-4-yl)-2-oxoacetamide] | < 25 | 50 to 75 |
| COc1ccc(Cn2c(C)c(C(=O)C(=O)Nc3ccnc(OC)c3)c3cc(OC)c(Cl)cc32)nc1 [Compound 98, 2-(6-chloro-5-methoxy-1-((5-methoxypyridin-2-yl)methyl)-2-methyl-1H-indol-3-yl)-N-(2-methoxypyridin-4-yl)-2-oxoacetamide] | < 25 | < 25 |
| COc1cc(NC(=O)C(=O)c2c(C)n(Cc3ncc(F)cc3F)c3cc(F)c(OC)cc23)ccn1 [Compound 101, 2-(1-((3,5-difluoropyridin-2-yl)methyl)-6-fluoro-5-methoxy-2-methyl-1H-indol-3-yl)-N-(2-methoxypyridin-4-yl)-2-oxoacetamide] | < 25 | < 25 |
| COc1cc(NC(=O)C(=O)c2c(C)n(Cc3ncc(F)cc3F)c3ccc(C)cc23)ccn1 [Compound 88, 2-(1-((3,5-difluoropyridin-2-yl)methyl)-2,5-dimethyl-1H-indol-3-yl)-N-(2-methoxypyridin-4-yl)-2-oxoacetamide] | < 25 | < 25 |
| COc1cc(NC(=O)C(=O)c2c(C)n(Cc3ccc(Cl)cc3)c3ccc(OC)c(F)c23)ccn1 [Compound 59, 2-(1-(4-chlorobenzyl)-4-fluoro-5-methoxy-2-methyl-1H-indol-3-yl)-N-(2-methoxypyridin-4-yl)-2-oxoacetamide] | < 25 | 25 to 50 |
| COc1ccc2c(c1)c(C(=O)C(=O)Nc1ccnc(OC)c1)c(C)n2Cc1cnc(Cl)cn1 [Compound 12, 2-(1-((5-chloropyrazin-2-yl)methyl)-5-methoxy-2-methyl-1H-indol-3-yl)-N-(2-methoxypyridin-4-yl)-2-oxoacetamide] | < 25 | < 25 |
| COc1cc(NC(=O)C(=O)c2c(C)n(Cc3ccc(Cl)cc3)c3ccc(N(C)C)cc23)ccn1 [Compound 17, 2-(1-(4-chlorobenzyl)-5-(dimethylamino)-2-methyl-1H-indol-3-yl)-N-(2-methoxypyridin-4-yl)-2-oxoacetamide] | < 25 | < 25 |
| CNc1ccc2c(c1)c(C(=O)C(=O)Nc1ccnc(OC)c1)c(C)n2Cc1ccc(Cl)cc1 [Compound 9, 2-(1-(4-chlorobenzyl)-2-methyl-5-(methylamino)-1H-indol-3-yl)-N-(2-methoxypyridin-4-yl)-2-oxoacetamide] | < 25 | < 25 |
| Cc1c(C(=O)C(=O)Nc2cccc(Cl)c2)c2cc(O)ccc2n1Cc1ccc(Cl)cc1 [Compound 71, 2-(1-(4-chlorobenzyl)-5-hydroxy-2-methyl-1H-indol-3-yl)-N-(3-chlorophenyl)-2-oxoacetamide] | < 25 | < 25 |
| COc1cc(NC(=O)C(=O)c2c(C)n(Cc3ccc(Cl)cc3)c3ccc(O)cc23)ccn1 [Compound 2, 2-(1-(4-chlorobenzyl)-5-hydroxy-2-methyl-1H-indol-3-yl)-N-(2-methoxypyridin-4-yl)-2-oxoacetamide] | < 25 | < 25 |
| COc1cc(NC(=O)C(=O)c2c(C)n(Cc3ncc(Cl)cc3F)c3cc(F)c(OC)cc23)ccn1 [Compound 99, 2-(1-((5-chloro-3-fluoropyridin-2-yl)methyl)-6-fluoro-5-methoxy-2-methyl-1H-indol-3-yl)-N-(2-methoxypyridin-4-yl)-2-oxoacetamide] | < 25 | < 25 |
| COc1cc(NC(=O)C(=O)c2c(C)n(Cc3ccc(F)cc3F)c3cc(F)c(OC)cc23)ccn1 [Compound 14, 2-(1-(2,4-difluorobenzyl)-6-fluoro-5-methoxy-2-methyl-1H-indol-3-yl)-N-(2-methoxypyridin-4-yl)-2-oxoacetamide] | < 25 | < 25 |
| COc1cc(NC(=O)C(=O)c2c(C)n(Cc3ccc(Cl)cn3)c3cc(F)c(OC)cc23)ccn1 [Compound 64, 2-(1-((5-chloropyridin-2-yl)methyl)-6-fluoro-5-methoxy-2-methyl-1H-indol-3-yl)-N-(2-methoxypyridin-4-yl)-2-oxoacetamide] | < 25 | 25 to 50 |
| COc1cnc2c(c1)c(C(=O)C(=O)Nc1ccnc(OC)c1)c(C)n2Cc1ncc(Cl)cc1F [Compound 34, 2-(1-((5-chloro-3-fluoropyridin-2-yl)methyl)-5-methoxy-2-methyl-1H-pyrrolo[2,3-b]pyridin-3-yl)-N-(2-methoxypyridin-4-yl)-2-oxoacetamide] | < 25 | < 25 |
| COc1cc(NC(=O)C(=O)c2c(C)n(Cc3ccc(Cl)cc3)c3ccncc23)ccn1 [Compound 37, 2-(1-(4-chlorobenzyl)-2-methyl-1H-pyrrolo[3,2-c]pyridin-3-yl)-N-(2-methoxypyridin-4-yl)-2-oxoacetamide] | 25 to 50 | 50 to 75 |
| COc1cc(NC(=O)C(=O)c2c(C)n(Cc3ccc(Cl)cc3)c3ccc(OC(F)(F)F)cc23)ccn1 [Compound 23, 2-(1-(4-chlorobenzyl)-2-methyl-5-(trifluoromethoxy)-1H-indol-3-yl)-N-(2-methoxypyridin-4-yl)-2-oxoacetamide] | < 25 | 50 to 75 |
| COc1cc(NC(=O)C(=O)c2c(C)n(Cc3ccc(Cl)cc3)c3ccc(Br)cc23)ccn1 [Compound 18, 2-(5-bromo-1-(4-chlorobenzyl)-2-methyl-1H-indol-3-yl)-N-(2-methoxypyridin-4-yl)-2-oxoacetamide] | < 25 | < 25 |
| COc1cc(NC(=O)C(=O)c2c(C)n(Cc3ccc(Cl)cn3)c3ccc(Cl)cc23)ccn1 [Compound 63, 2-(5-chloro-1-((5-chloropyridin-2-yl)methyl)-2-methyl-1H-indol-3-yl)-N-(2-methoxypyridin-4-yl)-2-oxoacetamide] | < 25 | 50 to 75 |
| COc1ccc(Cn2c(C)c(C(=O)C(=O)Nc3ccnc(OC)c3)c3cc(OC)ccc32)nc1 [Compound 43, 2-(5-methoxy-1-((5-methoxypyridin-2-yl)methyl)-2-methyl-1H-indol-3-yl)-N-(2-methoxypyridin-4-yl)-2-oxoacetamide] | < 25 | < 25 |
| COc1cc(NC(=O)C(=O)c2c(C)n(Cc3ccc(Cl)cc3)c3ccc(C(C)=O)cc23)ccn1 [Compound 5, 2-(5-acetyl-1-(4-chlorobenzyl)-2-methyl-1H-indol-3-yl)-N-(2-methoxypyridin-4-yl)-2-oxoacetamide] | < 25 | 25 to 50 |
| COc1ccc(Cn2c(C)c(C(=O)C(=O)Nc3ccnc(OC)c3)c3cc(C)ccc32)nc1 [Compound 69, 2-(1-((5-methoxypyridin-2-yl)methyl)-2,5-dimethyl-1H-indol-3-yl)-N-(2-methoxypyridin-4-yl)-2-oxoacetamide] | < 25 | < 25 |
